The source of these data is article PMC7955127, “Preclinical small molecule WEHI-7326 overcomes drug resistance and elicits response in patient-derived xenograft models of human treatment-refractory tumors” (Cell Death & Disease, 2021).

In data set [1] the test system is CEM dEpoB30. Put plainly: Cell growth inhibition assay, CEM dEpoB30. It counts as cell-based. Particulars: Homo sapiens; CEM dEpoB30, leukemia (taxane resistant, β-tubulin mutation); 72 h, Alamar Blue; mean of 3 ± SEM; read-out: IC50 (inhibition of cellular proliferation). Here is the method: Cells were plated at a density of between 500 to 5000 cells per well for adherent cell lines depending on doubling time, and 15,000 cells per well for lymphoblastic leukemia cell lines, in a 96-well plate in 200 μl of growth media. Plates were incubated overnight at 37 °C before adding the inhibitors. Inhibitors were serially diluted from the stock solutions in complete medium and added to the cells. […] Cell viability was assessed by the AlamarBlue (Invitrogen) or CellTiterBlue/Glo (Promega) method according to manufacturer’s instructions. The curve fits and IC50 values were generated in PRISM (GraphPad, San Diego, CA).
Parental human lymphoblastic leukemia cells (CEM) and their drug resistant derivatives (dEpoB30 and dEpoB300) were cultured in the presence of increasing amounts of WEHI-7326, paclitaxel or epothilone B. Cell survival was determined as described in Experimental Procedures. Shown are mean of 3 experiments +/- SEM. Dose response curves were fitted in PRISM using non-linear regression (4 parameter logistic) to calculate IC50 values.

In data set [2] the test system is MDA-MB-231. Nature of the data set: Cell cycle analysis (G2/M arrest, PI staining, flow cytometry), MDA-MB-231. In kind it is cell-based. As to conditions: Homo sapiens, MDA-MB-231, read-out: EC50 (G2/M arrest). Here is the method: Fig. 2 Antimitotic activity of WEHI-7326: cancer cell lines and effects on tubulin polymerization. a Dose-dependent antimitotic activity of WEHI-7326, nocodazol and taxol in tumor cell lines SW480 (colorectal) and MDA-MB-231 (breast). Data are presented as percentage of cells in G2/M after overnight incubation with increasing concentrations of inhibitors and PI staining followed by flow cytometry analysis. Mean average of 3 independent experiments ±SEM. b EC50 values (nM) for G2/M arrest on SW480 and MDA-MB-231 cell lines, given as mean average of 3 independent experiments ±SEM. c Western blot analysis of mitotic arrest in SW480 and MDA-MB-231 cells treated with EC50 concentrations of WEHI-7326 or Paclitaxel as marked by expression of phosho-S10 Histone H3 (p-HH3 S10), at different timepoints post treatment. Expression of β-actin provided as loading control. d Cell cycle analysis of LIM1899 cells 72 h post treatment with increasing concentrations of WEHI-7326 as measured by PI staining for DNA content followed by flow cytometry analysis. Sub-G1 represents apoptotic fractions and >4 N cell fractions of mitotic slippage. e Immunofluorescence confocal microscopy of tubulin polymerization in SW480 cells treated by various agents. […] Representative blot of 3 independent experiments. g Tubulin polymerization was assessed in vitro over time using a fluorescence-based tubulin polymerization assay (BK011P). […] Polymerization was measured by excitation at 360 nm and emission at 420 nm. […]
Cells in log growth were supplemented with fresh medium with either vehicle (control) or compound at the stated final concentrations. […] After 1 h incubation at room temperature in the dark, cells were analyzed on a FACScan (Becton and Dickinson) in CellQuest. The percentage of cells in each phase of the cell cycle was determined using ModFit software (Verity, http://www.vsh.com). Early and late apoptotic responses elicited by WEHI-7326 were assessed using Dead Cell Apoptosis Kit (ThermoFisher Scientific) with Annexin V FITC and PI following manufacturer’s instructions. […]
(Flow cytometry measures light scatter and fluorescence of single cells or particles in a stream.)

Data set [3] can be described thus: Metabolic stability in liver microsomes and cryopreserved hepatocytes. It counts as in vitro ADME. Particulars: human, rat and mouse liver microsomes and cryopreserved hepatocytes. From the text: a Measured physicochemical and solubility data for WEHI-7326. […] Microsomal-predicted EH values are included.
(Liver microsomes are vesicles of endoplasmic reticulum, rich in cytochrome P450 enzymes.)

Data set [4] concerns LIM2537 (colon carcinoma) xenograft. Put plainly: LIM2537 tumor xenograft in nude mice. In kind it is in vivo, BALB/c nude mice. Particulars: i.p. three times weekly. Here is the method:
(§1) Tumor cell lines LIM2537, U87MGΔ2–7EGFR or H1437 were collected by trypsinization, counted and injected at 5 × 10^6 cells/ site subcutaneously on both flanks of BALB/c nude mice. Treatment with vehicle control or WEHI-7326 at given dose was initiated after 5 days. Drug or vehicle (100 μl) was injected intraperitoneally three times weekly. Control group and treatment group consisted of 8 mice each. Tumors were measured twice weekly with calipers. Tumor volumes were estimated using the modified ellipsoid formula V = 1/2 (length × width^2). The experiments were terminated when tumors in the control group started ulcerating or exceeded 17 mm in length, in line with the LICR/DoS Animal Ethics Committee guidelines (11/05 A).

In data set [5] the test system is U87MG-(Δ2–7) (glioblastoma) xenograft. Nature of the data set: U87MG-(Δ2–7) tumor xenograft in nude mice. It counts as in vivo, BALB/c nude mice. As to conditions: U87MG-(Δ2–7) xenograft, i.p. three times weekly. Here is the method: as §1

SMILES strings stand for the structures.

In the case of `COc1ccc(CNc2nc(NCc3ccc(CN)cc3)nc(NN3CC(=O)NC3=O)n2)cc1` [WEHI-7326], in data set [1], the IC50 worked out at 1.67 ± 0.04 nM. In addition, the EC50 in data set [2] was 19 ± 2.2 nM. Moreover, the Rate of metabolism entry in data set [3] is “low rates of metabolism”. Further, the Tumor growth result in data set [4] and in data set [5] was “effective in reducing tumor growth” in each case.
